Laboratory results from article PMC3121697, “Predicting Binding to P-Glycoprotein by Flexible Receptor Docking” (PLoS Computational Biology, 2011).
Read-outs that look alike come from different tables or passages of the source.

Assays:
[1] = tested on: P-gp; settings: cited from earlier work
[2] = tested on: P-gp; settings: metabolites with favorable scores reassigned to the binders set; cited from earlier work
[3] = in vitro; settings: dog, MDCK-MDR1, pH 7.4
Method: (§1) Permeability measurements were performed by Wuxi Apptec, using the following procedures.
(§2) Test compounds were diluted with the transport buffer (HBSS, pH 7.4) from a 10 mM stock solution to a concentration of 2 µM and applied to the apical (A) or basolateral (B) side of the cell monolayer. […] In addition, the efflux ratio of each compound was also determined. Test and reference compounds were quantified by LC-MS/MS analysis based on the peak area ratio of analyte/IS.
(§3) The apparent permeability coefficient Papp (cm/s) was calculated using the equation: [drawing 1] where dCr/dt is the cumulative concentration of compound in the receiver chamber as a function of time (µM/s); Vr is the solution volume in the receiver chamber (0.075 mL on the apical side, 0.25 mL on the basolateral side); A is the surface area for the transport, i.e. 0.084 cm^2 for the area of the monolayer; C0 is the initial concentration in the donor chamber (µM).
(§4) The efflux ratio (ER) was calculated using the equation: [drawing 2]
(§5) Percent recovery was calculated using the equation: [drawing 3] Where Vd is the volume in the donor chambers (0.075 mL on the apical side, 0.25 mL on the basolateral side); Cd and Cr are the final concentrations of transport compound in donor and receiver chambers, respectively. Cc is the compound concentration in the cell lysate solution (µM), and Vc is the volume of insert well (0.075 mL in this assay).
(§6) Permeability determinations were performed in triplicate and are reported as mean values.

[4] = tested on: MDCK-MDR1 cells; experiment: MDCK-MDR1 monolayer permeability assay; settings: 2 µM, 150 min
Method: as §1, §2, §3, §4, §5, §6

[5] = tested on: P-gp; parameters: method as in Aller paper [29]; settings: reported value; ref Aller paper [29]; read-out: IC50 for inhibition of verapamil-stimulated ATPase activity; cited from earlier work
[6] = Table S4, Doan et al. dataset, both assays positive or both negative

Molecule	P-gp interaction [1, 6]	P-gp interaction ([1]; not told)	also measured
OC(CCN1CCCCC1)(c1ccccc1)C1CC2C=CC1C2 [(R)-Biperiden]	N		
CN(C)CC[C@H](c1ccc(Cl)cc1)c1ccccn1 [(R)-Chlorpheniramine]		N	
CN(C)CCO[C@](C)(c1ccccc1)c1ccccn1 [(R)-Doxylamine]		N	
CN[C@@]1(c2ccccc2Cl)CCCCC1=O [(R)-Ketamine]		N	
COc1ccc2c(c1)N(C[C@H](C)CN(C)C)c1ccccc1S2 [(R)-Levomeprazine]	Y		
c1ccc2c(c1)Sc1ccccc1N2C[C@H]1CN2CCC1CC2 [(R)-Mequitazine]	Y		
COCCc1ccc(OC[C@H](O)CNC(C)C)cc1 [(R)-Metoprolol]	N		
C=CCOc1ccccc1OC[C@H](O)CNC(C)C [(R)-Oxprenolol]	N		
CN(C)CC[C@H](c1ccccc1)c1ccccn1 [(R)-Pheniramine]		N	
CC(=O)C[C@H](c1ccccc1)c1c(O)c2ccccc2oc1=O [(R)-Warfarin]		N	
CC(C)(C)c1ccc([C@H](O)CCCN2CCC(C(O)(c3ccccc3)c3ccccc3)CC2)cc1 [(R)-terfenadine]		Y	
OC(CCN1CCCCC1)(c1ccccc1)C1CC2C=CC1C2 [(S)-Biperiden]	N		
CN(C)CC[C@@H](c1ccc(Cl)cc1)c1ccccn1 [(S)-Chlorpheniramine]		N	
CN(C)CCO[C@@](C)(c1ccccc1)c1ccccn1 [(S)-Doxylamine]		N	
CN[C@]1(c2ccccc2Cl)CCCCC1=O [(S)-Ketamine]		N	
c1ccc2c(c1)Sc1ccccc1N2CC1CN2CCC1CC2 [(S)-Mequitazine]	Y		
COCCc1ccc(OC[C@@H](O)CNC(C)C)cc1 [(S)-Metoprolol]	N		
C=CCOc1ccccc1OC[C@@H](O)CNC(C)C [(S)-Oxprenolol]	N		
CN(C)CC[C@@H](c1ccccc1)c1ccccn1 [(S)-Pheniramine]		N	
CC(=O)C[C@@H](c1ccccc1)c1c(O)c2ccccc2oc1=O [(S)-Warfarin]		N	
CC(C)(C)c1ccc([C@@H](O)CCCN2CCC(C(O)(c3ccccc3)c3ccccc3)CC2)cc1 [(S)-terfenadine]		Y	
NC12CC3CC(CC(C3)C1)C2 [Amantadine]	N		
Cc1cc(=O)n(-c2ccccc2)n1C [Antipyrine]		N	
COc1ccc(CCN2CCC(Nc3nc4ccccc4n3Cc3ccc(F)cc3)CC2)cc1 [Astemizole]		Y	
NC(=O)N1c2ccccc2C=Cc2ccccc21 [Carbamazepine]	N		
CC(C)CCC[C@@H](C)[C@H]1CC[C@H]2[C@@H]3CC=C4C[C@@H](O)CC[C@]4(C)[C@H]3CC[C@]12C [Cholesterol**, Cholesterol]			Reported interaction with P-gp [2]: interact with P-gp

Molecule	P-gp interaction [1, 6]	P-gp interaction ([1]; not told)	also measured
Clc1cccc(Cl)c1N=C1NCCN1 [Clonidine]	N		
N#CCNC(=O)[C@H](Cc1c[nH]cn1)NC(=O)OCc1ccccc1 [Compound 9]			Papp B→A at 150 min, 2 µM [3]: 2.9 ×10⁻⁶ cm/s; Papp at 150 min, 2 µM [3]: 0.5 ×10⁻⁶ cm/s; Mean Efflux Ratio [4]: 5.8; Mean Papp A to B ([4]; 37°C, pH 7.4, triplicate mean): 0.51 10^−6 cm/s
N=C(N)N/N=C/c1c(Cl)cccc1Cl [Guanabenz]	N		
N=C(N)NC(=O)Cc1c(Cl)cccc1Cl [Guanfacine]	N		
CN(C)CCCN1c2ccccc2CCc2ccccc21 [Imipramine]	N		
COc1ccc2c(c1)c(CC(=O)O)c(C)n2C(=O)c1ccc(Cl)cc1 [Indomethacin]	N		
CN(C)C(=O)C(CCN1CCC(O)(c2ccc(Cl)cc2)CC1)(c1ccccc1)c1ccccc1 [Loperamide]		Y	
OC[C@@H](O)[C@@H](O)[C@H](O)[C@H](O)CO [Mannitol]	N		
CNC(C)(C)Cc1ccccc1 [Mephentermine]	N		
CCCC(C)(COC(N)=O)COC(N)=O [Meprobamate]		N	
C=CCN1CC[C@]23c4c5ccc(O)c4O[C@H]2C(=O)CC[C@@]3(O)[C@H]1C5 [Naloxone]	N		
Cc1c(O)cccc1C(=O)N[C@@H](CSc1ccccc1)[C@H](O)CN1C[C@H]2CCCC[C@H]2C[C@H]1C(=O)NC(C)(C)C [Nelfinavir]	Y		
O=C1CN=C(c2ccccc2)c2cc([N+](=O)[O-])ccc2N1 [Nitrazepam]		N	
CC(=O)[C@H]1CC[C@H]2[C@@H]3CCC4=CC(=O)CC[C@]4(C)[C@H]3CC[C@]12C [Progesterone**, Progesterone]			Reported interaction with P-gp [2]: interact with P-gp
CNCCCC1c2ccccc2C=Cc2ccccc21 [Protriptylene]	Y		
CC(C)(C)NC(=O)[C@@H]1C[C@@H]2CCCC[C@@H]2CN1C[C@@H](O)[C@H](Cc1ccccc1)NC(=O)[C@H](CC(N)=O)NC(=O)c1ccc2ccccc2n1 [Saquinavir]	Y		
O=C(O)c1cc(/N=N/c2ccc(S(=O)(=O)Nc3ccccn3)cc2)ccc1O [Sulfasalazine]			P-gp interaction ([1]; Table S5, Doan et al. dataset, both assays positive or both negative): N
O=C(O)c1cc(/N=N/c2ccc(S(=O)(=O)Nc3ccccn3)cc2)ccc1O [Sulfasalazine_a*, Sulfasalazine]	N		
O=C(O)c1cc(/N=N/c2ccc(S(=O)(=O)Nc3ccccn3)cc2)ccc1O [Sulfasalazine_b*, Sulfasalazine]	N		
CNS(=O)(=O)Cc1ccc2[nH]cc(CCN(C)C)c2c1 [Sumatriptan]	N		
Nc1c2c(nc3ccccc13)CCCC2 [Tacrine]		N	
NC(Cc1cc(I)c(Oc2cc(I)c(O)c(I)c2)c(I)c1)C(=O)O (stereo not shown) [Thyroxine**, Thyroxine]			Reported interaction with P-gp [2]: interact with P-gp
C=C1CC[C@H](O)C/C1=C/C=C1\CCC[C@]2(C)[C@@H]([C@H](C)CCCC(C)C)CC[C@@H]12 [Vitamin D3**, Vitamin D3]			Reported interaction with P-gp [2]: interact with P-gp
CN(C)C/C=C(/c1ccc(Br)cc1)c1cccnc1 [Zimeldine]	N		
(S)-Levomeprazine	Y		
QZ59-RRR			IC50 [5]: 4.8 ± 2.6 µM
